{"source": "PubChem BioAssay AID1053200", "about": "(The Scripps Research Institute Molecular Screening Center, 2014)", "biological_target": "Methionine--tRNA ligase, mitochondrial (Homo sapiens) (UniProt Q96GW9)", "sequence (Q96GW9 whole entry, looked up)": "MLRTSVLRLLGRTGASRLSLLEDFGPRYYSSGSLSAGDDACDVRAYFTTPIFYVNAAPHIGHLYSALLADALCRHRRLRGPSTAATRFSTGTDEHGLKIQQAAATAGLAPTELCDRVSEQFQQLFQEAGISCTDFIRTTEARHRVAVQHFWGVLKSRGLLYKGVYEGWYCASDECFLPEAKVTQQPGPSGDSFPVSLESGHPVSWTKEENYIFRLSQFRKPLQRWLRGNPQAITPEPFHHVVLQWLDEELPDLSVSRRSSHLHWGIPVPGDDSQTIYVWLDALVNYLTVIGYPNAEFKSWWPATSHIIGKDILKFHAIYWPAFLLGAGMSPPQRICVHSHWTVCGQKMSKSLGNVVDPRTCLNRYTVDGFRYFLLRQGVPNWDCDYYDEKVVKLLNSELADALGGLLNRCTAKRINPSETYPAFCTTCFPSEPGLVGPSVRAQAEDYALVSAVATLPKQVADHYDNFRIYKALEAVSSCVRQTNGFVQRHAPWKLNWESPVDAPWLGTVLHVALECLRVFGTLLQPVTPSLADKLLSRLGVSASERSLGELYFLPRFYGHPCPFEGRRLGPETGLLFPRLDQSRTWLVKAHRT", "assay": "inhibitors of human mitochondrial methionyl-tRNA synthetase – biochemical, radioactivity, round 2, selectivity assay for T. brucei MetRS inhibitor project, late-stage follow-up (AID 1053200)", "details": "recombinant human mitochondrial MetRS, [3H]Met aminoacylation, stronger effect = higher value", "note": "Active and inactive are the calls of the source.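 Rule for the calls: active = inhibition at or above 50% when tested at 10 µM; inactive = inhibition below 50% at 10 µM.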", "data": [{"smiles": "CCN(CC)C(=O)C(=O)c1cn(CC(=O)Nc2cc(Br)cc(C(F)(F)F)c2)c2ccccc12", "values": [{"measurement": "inhibition", "setting": "at 10 µM", "value": "12.8% (inactive)"}, {"measurement": "inhibition", "setting": "inhibition, at 1 µM", "value": -17.3, "unit": "%"}]}, {"smiles": "CCN(CC)C(=O)C(=O)c1cn(CC(=O)Nc2cc(C(F)(F)F)cc(C(F)(F)F)c2)c2ccccc12", "values": [{"measurement": "inhibition", "setting": "at 10 µM", "value": "9.77% (inactive)"}, {"measurement": "inhibition", "setting": "inhibition, at 1 µM", "value": -3.97, "unit": "%"}]}, {"smiles": "CCN(CC)C(=O)C(=O)c1cn(CC(=O)Nc2cc(C)cc(C(F)(F)F)c2)c2ccccc12", "values": [{"measurement": "inhibition", "setting": "at 10 µM", "value": "20.9% (inactive)"}, {"measurement": "inhibition", "setting": "inhibition, at 1 µM", "value": -1.02, "unit": "%"}]}, {"smiles": "CCN(CC)C(=O)C(=O)c1cn(CC(=O)Nc2cc(Oc3ccccc3)cc(C(F)(F)F)c2)c2ccccc12", "values": [{"measurement": "inhibition", "setting": "at 10 µM", "value": "21.1% (inactive)"}, {"measurement": "inhibition", "setting": "inhibition, at 1 µM", "value": -2.76, "unit": "%"}]}, {"smiles": "CCN(CC)C(=O)C(=O)c1cn(CC(=O)Nc2cc(Cl)cc(C(F)(F)F)c2)c2ccccc12", "values": [{"measurement": "inhibition", "setting": "at 10 µM", "value": "17.4% (inactive)"}, {"measurement": "inhibition", "setting": "inhibition, at 1 µM", "value": -6.78, "unit": "%"}]}, {"smiles": "CCN(CC)C(=O)C(=O)c1cn(CC(=O)Nc2cccc(C(F)(F)F)c2)c2cc(OC)ccc12", "values": [{"measurement": "inhibition", "setting": "at 10 µM", "value": "-1.37% (inactive)"}, {"measurement": "inhibition", "setting": "inhibition, at 1 µM", "value": -8.82, "unit": "%"}]}]}
